Measured values taken from patent US12428406B2 (PMV Pharmaceuticals, Inc., priority 2019, dated 2025).

Molecular target: T1, p53 Y220C (Homo sapiens, UniProt P04637, Y220C)
T1 construct: The recombinant protein was a truncation mutant containing only amino acids 94-312 of p53; made in house; host or cells: E. coli
Assay: In vitro DNA binding activity assay (HTRF / TR-FRET): stabilization of p53 Y220C and increase of its DNA binding activity
Assay type: biochemical
Conditions: recombinant His-tagged p53 Y220C DNA binding domain (aa 94-312), biotin-labeled consensus DNA, incubated at 27° C. or 29° C. for 60 min
How it was run: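 Test compounds, diluted 3-fold in DMSO from 4.5 mM stocks, were incubated with bacterially expressed His-tagged p53 Y220C at room temperature for 15 min, and after a further step for 20 min. DNA binding was detected by time-resolved FRET between APC and europium labels. SC150 marks the concentration increasing binding by 50%.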

T1 sequence (P04637 94-312, change not shown): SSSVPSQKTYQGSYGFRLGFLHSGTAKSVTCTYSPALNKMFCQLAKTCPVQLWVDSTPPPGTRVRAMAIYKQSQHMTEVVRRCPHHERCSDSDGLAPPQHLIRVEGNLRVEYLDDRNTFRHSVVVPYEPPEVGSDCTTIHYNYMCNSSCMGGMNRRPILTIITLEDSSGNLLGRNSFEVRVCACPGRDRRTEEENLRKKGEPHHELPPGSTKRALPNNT

SC150 (concentration of the compound required to increase the DNA binding activity by 50%), + (+ = 0 μM ≤ SC150 < 0.05 μM):
COc1cc(S(C)(=O)=O)ccc1NCC#Cc1cc2c(N[C@H]3CC[C@H](N4CCOCC4)CC3)cccc2n1CC(F)F [Compound 180A, 1-(2,2-difluoroethyl)-2-{3-[(4-methane-sulfonyl-2-methoxy-phenyl)amino]prop-1-yn-1-yl}-N-[(1R,4R)-4-(morpholin-4-yl)cyclo-hexyl]-1H-indol-4-amine]
CCNC(=O)c1ccc(NCC#Cc2cc3c(N[C@H]4CC[C@H](N5CCOCC5)CC4)cccc3n2CC(F)(F)F)c(OC)c1 [Compound 183A, N-ethyl-3-methoxy-4-{[3-(4-{[(1R,4R)-4-(morpholin-4-yl)cyclohexyl]amino}-1-(2,2,2-trifluoroethyl)-1H-indol-2-yl)prop-2-yn-1-yl]amino}benzamide]
CS(=O)(=O)c1ccc(NCC#Cc2cc3c(N[C@H]4CC[C@H](N5CCOCC5)CC4)cccc3n2CC(F)(F)F)c(OCC#N)c1 [Compound 185A, 2-(5-methanesulfonyl-2-{[3-(4-{[(1R,4R)-4-(morpholin-4-yl)cyclohexyl]amino}-1-(2,2,2-trifluoroethyl)-1H-indol-2-yl)prop-2-yn-1-yl]amino}phenoxy)acetonitrile]
CS(=O)(=O)c1ccc(NCC#Cc2cc3c(N[C@H]4CC[C@@H](N5CCOCC5)CC4)cccc3n2CC(F)(F)F)c(OCC#N)c1 [Compound 186A, 2-(5-methanesulfonyl-2-{[3-(4-{[(1S,4S)-4-(morpholin-4-yl)cyclohexyl]amino}-1-(2,2,2-trifluoroethyl)-1H-indol-2-yl)prop-2-yn-1-yl]amino}phenoxy)acetonitrile]
CNS(=O)(=O)c1ccc(NCC#Cc2cc3c(N[C@H]4CC[C@H](N5CCOCC5)CC4)cccc3n2CC(F)(F)F)c(OC)c1 [Compound 187A, 3-methoxy-N-methyl-4-{[3-(4-{[(1R,4R)-4-(morpholin-4-yl)cyclohexyl]amino}-1-(2,2,2-trifluoroethyl)-1H-indol-2-yl)prop-2-yn-1-yl]amino}benzene-1-sulfonamide]
COc1cc(S(C)(=O)=O)ccc1NCC#Cc1cc2c(N[C@H]3CC[C@H](N4CC(S(C)(=O)=O)C4)CC3)cccc2n1CC(F)(F)F [Compound 188A, 2-{3-[(4-methane-sulfonyl-2-methoxy-phenyl)amino]prop-1-yn-1-yl}-N-[(1R,4R)-4-(3-methanesulfonyl-azetidin-1-yl)cyclohexyl]-1-(2,2,2-trifluoroethyl)-1H-indol-4-amine]
COc1cc(S(N)(=O)=O)ccc1NCC#Cc1cc2c(N[C@H]3CC[C@H](N4CC(S(C)(=O)=O)C4)CC3)cccc2n1CC(F)(F)F [Compound 190A, 3-methoxy-4-{[3-(4-{[(1R,4R)-4-(3-methanesulfonyl-azetidin-1-yl)cyclo-hexyl]amino}-1-(2,2,2-trifluoroethyl)-1H-indol-2-yl)prop-2-yn-1-yl]amino}benzene-1-sulfonamide]
CNC(=O)c1ccc(NCC#Cc2cc3c(N[C@H]4CC[C@H](N5CC(S(C)(=O)=O)C5)CC4)cccc3n2CC(F)(F)F)c(OC)c1 [Compound 192A, 3-methoxy-N-methyl-4-{[3-(4-{[(1R,4R)-4-(3-methanesulfonyl-azetidin-1-yl)cyclo-hexyl]amino}-1-(2,2,2-trifluoroethyl)-1H-indol-2-yl)prop-2-yn-1-yl]amino}benzamide]
COc1cc(S(C)(=O)=O)ccc1NCC#Cc1cc2c(N[C@H]3CC[C@H](N4CC5(CCC5)C4)CC3)cccc2n1CC(F)(F)F [Compound 194A, 2-{3-[(4-methane-sulfonyl-2-methoxy-phenyl)amino]prop-1-yn-1-yl}-N-[(1R,4R)-4-{2-azaspiro[3.3]heptan-2-yl}cyclohexyl]-1-(2,2,2-trifluoroethyl)-1H-indol-4-amine]
CNC(=O)c1ccc(NCC#Cc2cc3c(N[C@H]4CC[C@H](N5CC6(CCC6)C5)CC4)cccc3n2CC(F)(F)F)c(OC)c1 [Compound 196A, 3-methoxy-N-methyl-4-{[3-(4-{[(1R,4R)-4-{2-azaspiro[3.3]heptan-2-yl}cyclohexyl]amino}-1-(2,2,2-trifluoroethyl)-1H-indol-2-yl)prop-2-yn-1-yl]amino}benzamide]
COc1cc(S(N)(=O)=O)ccc1NCC#Cc1cc2c(N[C@H]3CC[C@H](N4CC5(CCC5)C4)CC3)cccc2n1CC(F)(F)F [Compound 198A, 3-methoxy-4-{[3-(4-{[(1R,4R)-4-{2-azaspiro[3.3]heptan-2-yl}cyclohexyl]amino}-1-(2,2,2-trifluoroethyl)-1H-indol-2-yl)prop-2-yn-1-yl]amino}benzene-1-sulfonamide]
COc1cc(S(C)(=O)=O)ccc1NCC#Cc1cc2c(N[C@H]3CC[C@H](N4CC5(COC5)C4)CC3)cccc2n1CC(F)(F)F [Compound 202A, 2-{3-[(4-methanesulfonyl-2-methoxyphenyl)amino]prop-1-yn-1-yl}-N-[(1R,4R)-4-{2-oxa-6-azaspiro[3.3]heptan-6-yl}cyclohexyl]-1-(2,2,2-trifluoroethyl)-1H-indol-4-amine]
COc1cc(S(C)(=O)=O)ccc1NCC#Cc1cc2c(N[C@H]3CC[C@@H](N4CC5(COC5)C4)CC3)cccc2n1CC(F)(F)F [Compound 203A, 2-{3-[(4-methanesulfonyl-2-methoxyphenyl)amino]prop-1-yn-1-yl}-N-[(1S,4S)-4-{2-oxa-6-azaspiro[3.3]heptan-6-yl}cyclohexyl]-1-(2,2,2-trifluoroethyl)-1H-indol-4-amine]
COc1cc(S(N)(=O)=O)ccc1NCC#Cc1cc2c(N[C@H]3CC[C@@H](N4CC5(COC5)C4)CC3)cccc2n1CC(F)(F)F [Compound 204A, 3-methoxy-4-{[3-(4-{[(1R,4R)-4-{2-oxa-6-azaspiro[3.3]heptan-6-yl}cyclohexyl]amino}-1-(2,2,2-trifluoroethyl)-1H-indol-2-yl)prop-2-yn-1-yl]amino}benzene-1-sulfonamide]
COc1cc(S(N)(=O)=O)ccc1NCC#Cc1cc2c(N[C@H]3CC[C@H](N4CC5(COC5)C4)CC3)cccc2n1CC(F)(F)F [Compound 205A, 3-methoxy-4-{[3-(4-{[(1S,4S)-4-{2-oxa-6-azaspiro[3.3]heptan-6-yl}cyclohexyl]amino}-1-(2,2,2-trifluoroethyl)-1H-indol-2-yl)prop-2-yn-1-yl]amino}benzene-1-sulfonamide]
CCC(=O)NS(=O)(=O)c1ccc(NCC#Cc2cc3c(N[C@H]4CC[C@H](N5CC6(COC6)C5)CC4)cccc3n2CC(F)(F)F)c(OC)c1 [Compound 206A, N-(3-methoxy-4-{[3-(4-{[(1R,4R)-4-{2-oxa-6-azaspiro[3.3]heptan-6-yl}cyclo-hexyl]amino}-1-(2,2,2-trifluoroethyl)-1H-indol-2-yl)prop-2-yn-1-yl]amino}benzene-sulfonyl)propanamide]
CCC(=O)NS(=O)(=O)c1ccc(NCC#Cc2cc3c(N[C@H]4CC[C@@H](N5CC6(COC6)C5)CC4)cccc3n2CC(F)(F)F)c(OC)c1 [Compound 207A, N-(3-methoxy-4-{[3-(4-{[(1S,4S)-4-{2-oxa-6-azaspiro[3.3]heptan-6-yl}cyclo-hexyl]amino}-1-(2,2,2-trifluoroethyl)-1H-indol-2-yl)prop-2-yn-1-yl]amino}benzene-sulfonyl)propanamide]
COc1cc(S(=O)(=O)NC(C)=O)ccc1NCC#Cc1cc2c(N[C@H]3CC[C@H](N4CC5(COC5)C4)CC3)cccc2n1CC(F)(F)F [Compound 208A, N-(3-methoxy-4-{[3-(4-{[(1R,4R)-4-{2-oxa-6-azaspiro[3.3]heptan-6-yl}cyclohexyl]amino}-1-(2,2,2-trifluoro-ethyl)-1H-indol-2-yl)prop-2-yn-1-yl]amino}benzene-sulfonyl)acetamide]
COc1cc(S(=O)(=O)NC(C)=O)ccc1NCC#Cc1cc2c(N[C@H]3CC[C@@H](N4CC5(COC5)C4)CC3)cccc2n1CC(F)(F)F [Compound 209A, N-(3-methoxy-4-{[3-(4-{[(1S,4S)-4-{2-oxa-6-azaspiro[3.3]heptan-6-yl}cyclohexyl]amino}-1-(2,2,2-trifluoroethyl)-1H-indol-2-yl)prop-2-yn-1-yl]amino}benzene-sulfonyl)acetamide]
CS(=O)(=O)c1ccc(NCC#Cc2cc3c(N[C@H]4CC[C@H](N5CC6(COC6)C5)CC4)cccc3n2CC(F)(F)F)c(OCCF)c1 [Compound 210A, N-((1R,4R)-4-(2-oxa-6-azaspiro[3.3]heptan-6-yl)cyclohexyl)-2-(3-((2-(2-fluoroethoxy)-4-(methylsulfonyl)phenyl)amino)prop-1-yn-1-yl)-1-(2,2,2-trifluoroethyl)-1H-indol-4-amine]
